Data published in patent publication US11440822B2, “Methods and uses of dissolved organic material fractions for binding metal ions” (priority 2016, dated 2022).

System: Scenedesmus obliquus
Assay: Toxicity of Cd to Scenedesmus obliquus cultures
Assay type: cell-based
Conditions: Cd(NO3)2
Description: Laboratory grown cultures of Scenedesmus obliquus were obtained from the Canadian Phycological Culture Center (CPCC) in Waterloo, Ontario. The cells were grown using a bold basal media (BBM) at standard light regimes (16:8 h light to dark) fixed light intensity of 90-100 μmol photons […] and fixed temperature of 21° C. constantly aerated in a growth chamber.
Four algal cultures were grown in the presence of varying levels of Cd: control (0 μL^−1 Cd); EC20 (19.5 μL^−1Cd); EC30 (46.4 μL^−1 Cd) and EC40 (78.8 μL^−1 Cd) starting at 1 million cells per mL for Replicate 1 and 2 million cells per mL for Replicate 2. The cells were harvested in early stationary phase for further analysis.

O=[N+]([O-])[O-].O=[N+]([O-])[O-].[Cd+2] [Cd, Cd(NO3)2]
toxicity of Cd, EC20: 19.5 μL^−1Cd
toxicity of Cd, EC30: 46.4 μL^−1 Cd
toxicity of Cd, EC40: 78.8 μL^−1 Cd
